The values below are quoted from earlier work in patent US9101541B2 (Cadila Healthcare Limited, priority 2010, dated 2015).

The conditions of data set [1]: oral administration.

Molecules are shown by their SMILES.

For `CO[C@H]1C[C@@H]2CC[C@@H](C)[C@@](O)(O2)C(=O)C(=O)N2CCCC[C@H]2C(=O)O[C@H]([C@H](C)C[C@@H]2CC[C@@H](O)[C@H](OC)C2)CC(=O)[C@H](C)/C=C(\C)[C@@H](O)[C@@H](OC)C(=O)[C@H](C)C[C@H](C)/C=C/C=C/C=C/1C` [Sirolimus, (3S,6R,7E,9R,10R,12R,14S,15E,17E,19E,21S,23S,26R,27R,34aS)-9,10,12,13,14,21,22,23,24,25,26,27,32,33,34,34a-hexadecahydro-9,27-dihydroxy-3-[(1R)-2-[(1S,3R,4R)-4-hydroxy-3-methoxycyclohexyl]-1-methylethyl]-10,21-dimethoxy-6,8,12,14,20,26-hexamethyl-23,27-epoxy-3H-pyrido[2,1-c][1,4]oxaazacyclohentriacontine-1,5,11,28,29 (4H,6H,31H)-pentone], the “oil and water solubility” value is “poor oil and water solubility”. In addition, where the note is “Pharmaceutical Research, Vo. 22, No. 1, January 2005, Chi-Yuan Wu et al.”, the BCS class entry is “BCS Class 2”. In data set [1], the “time to maximum blood concentrations after dosing” value was 0.5 to 2.3 h.
